Holding throughout (format): cell-based
Series [1] addresses T1, Toll-like receptor 7 (Homo sapiens) (UniProt Q9NYK1).
T1 sequence (whole entry): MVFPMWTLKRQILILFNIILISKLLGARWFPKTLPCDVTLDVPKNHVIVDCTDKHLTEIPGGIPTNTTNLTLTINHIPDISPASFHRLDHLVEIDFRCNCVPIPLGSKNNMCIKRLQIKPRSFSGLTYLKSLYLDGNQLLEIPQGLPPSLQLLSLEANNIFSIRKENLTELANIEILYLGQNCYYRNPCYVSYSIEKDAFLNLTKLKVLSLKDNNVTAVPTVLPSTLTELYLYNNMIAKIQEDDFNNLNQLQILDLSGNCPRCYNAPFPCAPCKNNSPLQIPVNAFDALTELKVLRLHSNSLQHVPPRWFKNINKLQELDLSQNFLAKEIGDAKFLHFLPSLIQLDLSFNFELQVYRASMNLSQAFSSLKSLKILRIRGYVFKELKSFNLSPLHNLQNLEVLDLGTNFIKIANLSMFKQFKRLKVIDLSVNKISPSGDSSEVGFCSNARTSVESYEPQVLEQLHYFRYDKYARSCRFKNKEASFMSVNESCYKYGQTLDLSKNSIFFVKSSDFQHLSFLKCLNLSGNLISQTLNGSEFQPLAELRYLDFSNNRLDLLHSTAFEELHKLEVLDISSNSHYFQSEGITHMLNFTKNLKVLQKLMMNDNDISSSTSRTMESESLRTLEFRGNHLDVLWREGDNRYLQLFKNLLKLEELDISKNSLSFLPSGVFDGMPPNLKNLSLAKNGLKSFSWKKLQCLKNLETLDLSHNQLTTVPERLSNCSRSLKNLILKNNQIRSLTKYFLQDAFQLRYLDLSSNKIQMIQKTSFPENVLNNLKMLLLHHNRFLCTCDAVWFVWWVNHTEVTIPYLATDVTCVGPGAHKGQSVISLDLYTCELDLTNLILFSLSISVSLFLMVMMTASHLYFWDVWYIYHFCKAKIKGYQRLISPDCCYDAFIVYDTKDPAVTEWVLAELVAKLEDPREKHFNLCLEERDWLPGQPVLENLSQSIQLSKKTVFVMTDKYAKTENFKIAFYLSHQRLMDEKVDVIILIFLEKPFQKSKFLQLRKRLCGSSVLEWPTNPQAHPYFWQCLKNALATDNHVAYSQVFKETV
Put plainly: Agonist activity at human TLR7 expressed in HEK293 cells after 6 hrs by NFkappaB-luciferase reporter gene assay.

Series [2] addresses T2, Toll-like receptor 8 (Homo sapiens) (UniProt Q9NR97).
T2 sequence (whole entry): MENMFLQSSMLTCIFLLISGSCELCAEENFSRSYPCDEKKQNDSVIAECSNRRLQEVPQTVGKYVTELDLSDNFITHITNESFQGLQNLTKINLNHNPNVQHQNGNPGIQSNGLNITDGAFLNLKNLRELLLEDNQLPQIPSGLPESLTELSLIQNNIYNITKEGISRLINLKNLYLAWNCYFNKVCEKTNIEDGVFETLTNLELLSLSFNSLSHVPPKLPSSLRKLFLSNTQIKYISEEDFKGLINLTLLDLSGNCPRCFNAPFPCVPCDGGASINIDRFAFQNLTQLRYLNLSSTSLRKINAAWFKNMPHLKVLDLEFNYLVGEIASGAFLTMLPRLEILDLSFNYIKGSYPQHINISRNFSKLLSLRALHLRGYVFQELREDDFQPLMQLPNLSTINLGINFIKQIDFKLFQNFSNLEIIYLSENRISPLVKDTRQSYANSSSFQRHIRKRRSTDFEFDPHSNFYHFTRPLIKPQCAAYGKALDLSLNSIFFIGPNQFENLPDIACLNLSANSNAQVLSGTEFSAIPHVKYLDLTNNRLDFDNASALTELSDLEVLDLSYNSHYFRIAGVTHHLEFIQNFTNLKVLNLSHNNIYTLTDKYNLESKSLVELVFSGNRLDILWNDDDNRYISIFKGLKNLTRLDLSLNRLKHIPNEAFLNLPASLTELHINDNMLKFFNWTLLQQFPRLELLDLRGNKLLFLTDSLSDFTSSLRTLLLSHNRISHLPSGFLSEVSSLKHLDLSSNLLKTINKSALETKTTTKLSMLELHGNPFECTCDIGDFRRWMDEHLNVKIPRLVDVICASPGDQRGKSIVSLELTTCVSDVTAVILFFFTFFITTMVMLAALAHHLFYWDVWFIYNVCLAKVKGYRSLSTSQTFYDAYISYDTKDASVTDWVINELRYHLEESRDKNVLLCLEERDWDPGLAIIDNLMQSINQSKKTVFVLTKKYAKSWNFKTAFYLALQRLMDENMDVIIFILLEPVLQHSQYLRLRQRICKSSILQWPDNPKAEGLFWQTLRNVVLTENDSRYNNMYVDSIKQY
As to the kind of experiment: Agonist activity at human TLR8 expressed in HEK293 cells after 6 hrs by NFkappaB-luciferase reporter gene assay.

A short description of series [3]: Cytotoxicity against HEK293 cells transfected with the CMV-TLR7 construct assessed as reduction in cell viability after 6 hrs by ATPlite assay. The settings on record: human.
In series [4] the target is T1, Toll-like receptor 7 (Homo sapiens). As to the kind of experiment: Agonist activity at TLR7 in human PBMC assessed as suppression of HCV replicon replication in human HuH7 luc/neo cells harboring RNA encoding bicistronic expression construct comprising wild type HCV type 1b NS3-NS5B regions exposed to conditioned media from compound treated PBMCs after 24 hrs by luciferase reporter gene assay.

Some results are limits rather than exact numbers.

As to `CCCCNc1nc(N)nc2c1CN(Cc1ccc(-c3ccccc3)cc1)CC2`, the values for the MEC in series [1], in series [2] and in series [4] were 14 µM, 0.5 µM and 4.49 µM, respectively. For the same compound, in series [3], the CC50 at 6 h was greater than 24 µM.
Turning to `CCCCNc1nc(N)nc2c1CN(Cc1ccc(OC)cc1)CC2`, the MEC was 2.1 µM in series [1], 0.08 µM in series [2] and 0.17 µM in series [4]. Also, in series [3], the CC50 at 6 h was greater than 24 µM.
On to `CCCCNc1nc(N)nc2c1CN(Cc1ccccn1)CC2`, for which the MEC in series [1] was 3.3 µM; in series [2], 0.07 µM; in series [4] it was 0.14 µM. Besides, the cytotoxic concentration (CC50) at 6 h in series [3] was greater than 24 µM.
As for `CCCCNc1nc(N)nc2c1CCN(CCc1ccccc1)C2`, the MEC is 6.5 µM in series [1] and 0.2 µM in series [2]. Further, the CC50 at 6 h in series [3] is greater than 24 µM.
Take `CCCCNc1nc(N)nc2c1CN(Cc1cccc(Cl)c1Cl)CC2`: the results for the MEC in series [1], in series [2] and in series [4] were 1.5 µM, 0.18 µM and 0.25 µM, respectively. Moreover, the cytotoxic concentration (CC50) at 6 h in series [3] is greater than 24 µM.
Take `CCCCNc1nc(N)nc2c1CN(Cc1c[nH]c3ccccc13)CC2`: the MEC is greater than 20 µM in series [1], 0.22 µM in series [2] and 0.18 µM in series [4]. Moreover, the CC50 at 6 h in series [3] was greater than 24 µM.
In the case of `CCCCNc1nc(N)nc2c1CN(S(C)(=O)=O)CC2`, the figures for the MEC in series [1] and in series [2] were greater than 25 µM and 9.9 µM, respectively. Further, in series [3], the cytotoxic concentration (CC50) at 6 h is greater than 24 µM.
As to `CCCCNc1nc(N)nc2c1CN(C(=O)C(C)C)CC2`, the MEC in series [1] was found to be 8.1 µM; in series [2], 1.6 µM; in series [4], 1.8 µM. The CC50 at 6 h in series [3] was greater than 24 µM.
On to `CCCCNc1nc(N)nc2c1CN(C(=O)c1cnc(N)s1)CC2`, for which the MEC in series [1] was 2.1 µM; in series [2], 4.4 µM; in series [4] it was 0.38 µM. Moreover, in series [3], the CC50 at 6 h is greater than 24 µM.
On to `CCCCNc1nc(N)nc2c1CN(Cc1ccco1)CC2`, for which the MEC was determined as 3.7 µM in series [1], 0.08 µM in series [2] and 0.07 µM in series [4]. The CC50 at 6 h in series [3] is greater than 24 µM.
`CCCCNc1nc(N)nc2c1CN(C(=O)c1scnc1C)CC2`: the MEC in series [1] was 13 µM; in series [2], 5.6 µM; in series [4], 2.23 µM. Further, the CC50 at 6 h in series [3] is greater than 24 µM.
For the compound `CCCCNc1nc(N)nc2c1CN(Cc1ccccc1)CC2`, the figures for the MEC in series [1] and in series [2] were 1.6 µM and 0.06 µM, respectively. Moreover, the CC50 at 6 h in series [3] was greater than 24 µM.
Take `CCCCNc1nc(N)nc2c1CN(Cc1cccnc1)CC2`: the MEC in series [1] was 3 µM; in series [2] it was 0.13 µM; in series [4] it was 0.15 µM. For the same compound, in series [3], the CC50 at 6 h was greater than 24 µM.
With `CCCCNc1nc(N)nc2c1CN(C(=O)c1ccccc1)CC2`, the MEC in series [1] turned out to be 1.5 µM; in series [2], 1.4 µM. In addition, in series [3], the half-maximal cytotoxic concentration (CC50) at 6 h was greater than 24 µM.
For `CCCCNc1nc(N)nc2c1CN(CCc1ccccc1)CC2`, the MEC came to 1.8 µM in series [1] and 0.2 µM in series [2]. Further, the CC50 at 6 h in series [3] was greater than 24 µM.
In the case of `CCCCNc1nc(N)nc2c1CN(C(C)=O)CC2`, the figures for the MEC in series [1] and in series [2] were 4.9 µM and 0.5 µM, respectively. Further, in series [3], the CC50 at 6 h is greater than 24 µM.
In the case of `CCCCNc1nc(N)nc2c1CN(C(=O)c1ccccn1)CC2`, the MEC is 9.5 µM in series [1], 2.9 µM in series [2] and 2.21 µM in series [4]. The 50% cytotoxic concentration (CC50) at 6 h in series [3] is greater than 24 µM.
As for `CCCCNc1nc(N)nc2c1CN(C(=O)c1cnccn1)CC2`, the values for the MEC in series [1], in series [2] and in series [4] were 3.7 µM, 2.2 µM and 2.38 µM, respectively. Besides, in series [3], the CC50 at 6 h was greater than 24 µM.
In the same order, the values of `CCCCNc1nc(N)nc2c1CN(C(=O)c1cc(C)on1)CC2` are 0.8 µM, 0.4 µM, 0.22 µM and greater than 24 µM.
In the same order, the values of `CCCCNc1nc(N)nc2c1CN(C(=O)C1CCC1)CC2` are 0.8 µM, 0.4 µM, 0.23 µM and greater than 24 µM.
For `CCCCNc1nc(N)nc2c1CN(C)CC2`, the MEC was determined as 9.6 µM in series [1] and 0.03 µM in series [2]. For the same compound, in series [3], the half-maximal cytotoxic concentration (CC50) at 6 h was greater than 24 µM.
`CCCCNc1nc(N)nc2c1CN(Cc1ccc(C(F)(F)F)cc1)CC2`: the values for the MEC in series [1], in series [2] and in series [4] were 2.8 µM, 0.23 µM and 0.54 µM, respectively. Besides, the CC50 at 6 h in series [3] is greater than 24 µM.
For `CCCCNc1nc(N)nc2c1CCN(C(C)=O)C2`, the MEC in series [1] was found to be 5.8 µM; in series [2], 0.4 µM. The CC50 at 6 h in series [3] was greater than 24 µM.
For `CCCCNc1nc(N)nc2c1CN(C(=O)c1csc(N)n1)CC2`, the MEC in series [1] is 8 µM; in series [2], 6.9 µM; in series [4], 1.05 µM. Further, the half-maximal cytotoxic concentration (CC50) at 6 h in series [3] is greater than 24 µM.
As for `CCCCNc1nc(N)nc2c1CCNC2`, the figures for the MEC in series [1] and in series [2] were 8.9 µM and 0.6 µM, respectively. Further, in series [3], the CC50 at 6 h was greater than 24 µM.
Take `CCCCNc1nc(N)nc2c1CN(Cc1cc(F)cc(F)c1)CC2`: the figures for the MEC in series [1], in series [2] and in series [4] were 3.5 µM, 0.23 µM and 0.53 µM, respectively. Moreover, the half-maximal cytotoxic concentration (CC50) at 6 h in series [3] was greater than 24 µM.
For `CCCCNc1nc(N)nc2c1CCN(C)C2`, the values for the MEC in series [1] and in series [2] were 10 µM and 0.2 µM, respectively. Further, the half-maximal cytotoxic concentration (CC50) at 6 h in series [3] is greater than 24 µM.
As for `CCCCNc1nc(N)nc2c1CN(Cc1cccc3ccccc13)CC2`, the MEC in series [1] was found to be 1.3 µM; in series [2], 0.43 µM; in series [4], 0.43 µM. In series [3], the 50% cytotoxic concentration (CC50) at 6 h is greater than 24 µM.
As to `CCCCNc1nc(N)nc2c1CCN(S(C)(=O)=O)C2`, the MEC in series [1] came out at 20 µM; in series [2], 0.8 µM. Further, the 50% cytotoxic concentration (CC50) at 6 h in series [3] is greater than 24 µM.
Take `CCCCNc1nc(N)nc2c1CN(C(=O)c1csnn1)CC2`: the MEC in series [1] came out at 0.9 µM; in series [2], 0.1 µM; in series [4] it was 0.15 µM. In series [3], the 50% cytotoxic concentration (CC50) at 6 h was greater than 24 µM.
On the same counts, the results for `CCCCNc1nc(N)nc2c1CN(C(=O)c1cocn1)CC2` are 0.7 µM, 0.2 µM, 0.17 µM and greater than 24 µM.
Take `CCOCc1nc2c(N)nc3ccccc3c2n1CC(C)(C)O`: the MEC is 0.1 µM in series [1] and 0.3 µM in series [2].
For the compound `CCCCNc1nc(N)nc2c1CN(C(=O)CC)CC2`, the MEC was 2.3 µM in series [1], 0.4 µM in series [2] and 0.53 µM in series [4]. For the same compound, the CC50 at 6 h in series [3] is greater than 24 µM.
Take `CCCCNc1nc(N)nc2c1CCN(Cc1ccccc1)C2`: the MEC in series [1] came to 11 µM; in series [2], 0.4 µM. In addition, in series [3], the CC50 at 6 h was greater than 24 µM.
On to `CCCCNc1nc(N)nc2c1CNCC2`, for which the MEC is greater than 25 µM in series [1] and 7.2 µM in series [2]. For the same compound, in series [3], the CC50 at 6 h is greater than 24 µM.

These data come from ChEMBL document CHEMBL4265889, “Design and synthesis of tetrahydropyridopyrimidine based Toll-Like Receptor (TLR) 7/8 dual agonists” (Bioorg Med Chem Lett, 2018).
